Data taken from patent US10932466B2, “Fungicidal compositions” (SYNGENTA PARTICIPATIONS AG, priority 2016, dated 2021).
Where two headings read alike, the source gives them in different places.

Experiments:
Assay type in all cases: cell-based
Septoria tritici = Septoria tritici (leaf blotch) growth inhibition in PDB, 96-well microtiter plate, photometric after 72 hrs; conditions: Zymoseptoria tritici; for inhibition at 0.0008 ppm: 1.001 0.0008 ppm alone
Experimental: (§1) I) Septoria tritici (Leaf Blotch): Conidia of the fungus from cryogenic storage were directly mixed into nutrient broth (PDB potato dextrose broth). After placing a (DMSO) solution of the test compounds into a microtiter plate (96-well format), the nutrient broth containing the fungal spores was added. The test plates were incubated at 24 C and the inhibition of growth was determined photometrically after 72 hrs.

[1] = system: Mycosphaerella arachidis, syn. Cercospora arachidicola; test: Mycosphaerella arachidis (peanut brown leaf spot) growth inhibition in PDB, 96-well microtiter plate, photometric after 5-6 days
Experimental: as §1, with “II) Mycosphaerella arachidis, syn. Cercospora arachidicola (Peanut Brown Leaf Soot):” for “I) Septoria tritici (Leaf Blotch):”, “approximately 5-6 days.” for “72 hrs.”

Venturia inaequalis = Venturia inaequalis (apple scab) growth inhibition in PDB, 96-well microtiter plate, photometric after 7 days; conditions: for inhibition at 0.0016 ppm: 1.001 0.0016 ppm alone; for inhibition at 0.0031 ppm: 1.001 0.0031 ppm alone
Experimental: as §1, with “IV) Venturia inaeaualis (Apple Scab):” for “I) Septoria tritici (Leaf Blotch):”, “7 days.” for “72 hrs.”

Botrytis cinerea = Botrytis cinerea (gray mould) growth inhibition in PDB, 96-well microtiter plate, photometric after 72 hrs; conditions: for inhibition at 0.0063 ppm: 1.001 0.0063 ppm alone
Experimental: as §1, with “V) Botrytis cinerea (Gray Mould):” for “I) Septoria tritici (Leaf Blotch):”

Rhizoctonia solani = Rhizoctonia solani (Thanatephorus cucumeris) growth inhibition in PDB, 96-well microtiter plate, photometric and visual after 3-4 days; conditions: for inhibition at 0.0063 ppm: 1.001 0.0063 ppm alone; for inhibition at 0.0125 ppm: 1.001 0.0125 ppm alone; for inhibition at 0.025 ppm: 1.001 0.0250 ppm alone; for inhibition at 0.05 ppm: 1.001 0.0500 ppm alone; for inhibition at 0.1 ppm: 1.001 0.1000 ppm alone
Experimental: VI) Rhizoctonia solani (Thanatephorus cucumeris) Mycelial fragments of a newly grown liquid culture of the fungus were directly mixed into nutrient broth (PDB potato dextrose broth). After placing a (DMSO) solution of the test compounds into a microtiter plate (96-well format), the nutrient broth containing the fungal material was added. The test plates were incubated at 24° C. and the inhibition of growth was determined photometrically and visually 3-4 days after application.

Alternaria solani = Alternaria solani (early blight tomato/potato) growth inhibition in PDB, 96-well microtiter plate, photometric after 48 hrs; conditions: for Compound 1.001 inhibition: 1.001 0.0000 ppm, Table 11; for inhibition at 0.0008 ppm: 1.001 0.0008 ppm alone
Experimental: III) Altemaria solani (Early Blight Tomato/Potato):
as §1, with “Conidia” for “I) Septoria tritici (Leaf Blotch): Conidia”, “48” for “72”

[2] = Table 6, read-out: Compound 1.001 inhibition
[3] = Table 12, read-out: Compound 1.001 inhibition
[4] = Table 8, read-out: Compound 1.001 inhibition
[5] = Table 14, read-out: Compound 1.001 inhibition

## Cc1nnc(C#N)c(-c2c(F)cccc2F)c1-c1ccccc1 [(IId), 4-(2,6-difluorophenyl)-6-methyl-5-phenyl-pyridazine-3-carbonitrile]
Septoria tritici; (IId) 0.0313 ppm alone, Table 9
  inhibition at 0.0313 ppm: 3%
Septoria tritici; (IId) 0.0625 ppm alone, Table 9
  inhibition at 0.0625 ppm: 8%
[1]; (IId) 0.0039 ppm alone, Table 10
  inhibition at 0.0039 ppm: 5%
[1]; (IId) 0.0313 ppm alone, Table 10
  inhibition at 0.0313 ppm: 5%
Venturia inaequalis; (IId) 0.0156 ppm alone, Table 12, read-out: (IId) Inhibition
  inhibition at 0.0156 ppm: 0%
Venturia inaequalis; (IId) 0.0313 ppm alone, Table 12, read-out: (IId) Inhibition
  inhibition at 0.0313 ppm: 15%
Venturia inaequalis; (IId) 0.0625 ppm alone, Table 12
  inhibition at 0.0625 ppm: 0%
Botrytis cinerea; (IId) 0.0313 ppm alone, Table 13, read-out: (IId) Inhibition
  inhibition at 0.0313 ppm: 0%
Botrytis cinerea; (IId) 0.0625 ppm alone, Table 13
  inhibition at 0.0625 ppm: 0%
Rhizoctonia solani; (IId) 0.5000 ppm alone, Table 14
  inhibition at 0.5 ppm: 31%

## CON(C(=O)c1cn(C)nc1C(F)F)C(C)Cc1c(Cl)cc(Cl)cc1Cl (stereo not drawn) [Compound 1.001, 3-(difluoromethyl)-N-methoxy-1-methyl-N-[1-methyl-2-(2,4,6-trichlorophenyl)ethyl]pyrazole-4-carboxamide]
Septoria tritici; Table 4, read-out: Compound 1.001 inhibition
  inhibition at 0.0008 ppm: 49%
Septoria tritici; Table 9, read-out: Compound 1.001 inhibition
  inhibition at 0.0008 ppm: 45%
Septoria tritici; 1.001 0.0016 ppm alone, Table 9, read-out: Compound 1.001 inhibition
  inhibition at 0.0016 ppm: 81%
[1]; 1.001 0.0004 ppm alone, Table 10, read-out: Compound 1.001 inhibition
  inhibition at 0.0004 ppm: 47%
Alternaria solani; (IId) 0.0039 ppm
  Compound 1.001 inhibition: 9%
Alternaria solani; (IId) 0.0078 ppm
  Compound 1.001 inhibition: 6%
Alternaria solani; (IId) 0.0156 ppm
  Compound 1.001 inhibition: 10%
Alternaria solani; (IId) 0.0625 ppm
  Compound 1.001 inhibition: 6%
Alternaria solani; (IId) 0.1250 ppm
  Compound 1.001 inhibition: 0%
Alternaria solani; Alternaria solani, 1.001 0.0004 ppm alone, Table 11, read-out: Compound 1.001 inhibition
  inhibition at 0.0004 ppm: 26%
Alternaria solani; Alternaria solani, Table 5, read-out: Compound 1.001 inhibition
  inhibition at 0.0008 ppm: 23%
Alternaria solani; Alternaria solani, Table 11, read-out: Compound 1.001 inhibition
  inhibition at 0.0008 ppm: 34%
Alternaria solani; Alternaria solani, 1.001 0.0016 ppm alone, Table 11, read-out: Compound 1.001 inhibition
  inhibition at 0.0016 ppm: 60%
Venturia inaequalis; [2]
  inhibition at 0.0016 ppm: 62%
  inhibition at 0.0031 ppm: 84%
Venturia inaequalis; [3]
  inhibition at 0.0016 ppm: 50%
  inhibition at 0.0031 ppm: 81%
Botrytis cinerea; Table 7, read-out: Compound 1.001 inhibition
  inhibition at 0.0063 ppm: 30%
Botrytis cinerea; Table 13, read-out: Compound 1.001 inhibition
  inhibition at 0.0063 ppm: 34%
Rhizoctonia solani; 1.001 0.0031 ppm alone, Table 8, read-out: Compound 1.001 inhibition
  inhibition at 0.0031 ppm: 13%
Rhizoctonia solani; [4]
  inhibition at 0.0063 ppm: 16%
  inhibition at 0.0125 ppm: 0%
  inhibition at 0.025 ppm: 0%
  inhibition at 0.05 ppm: 15%
  inhibition at 0.1 ppm: 0%
Rhizoctonia solani; [5]
  inhibition at 0.0063 ppm: 0%
  inhibition at 0.0125 ppm: 0%
  inhibition at 0.025 ppm: 9%
  inhibition at 0.05 ppm: 0%
  inhibition at 0.1 ppm: 0%

## Cc1nnc(Cl)c(-c2c(F)cccc2F)c1-c1ccccc1 [(IIc), 4-(2,6-difluorophenyl)-3-chloro-6-methyl-5-phenyl-pyridazine]
Septoria tritici; (IIc) 0.0156 ppm alone, Table 4
  inhibition at 0.0156 ppm: 1%
Alternaria solani; Alternaria solani, (IIc) 0.0020 ppm alone, Table 5
  inhibition at 0.002 ppm: 0%
Venturia inaequalis; (IIc) 0.0078 ppm alone, Table 6
  inhibition at 0.0078 ppm: 0%
Venturia inaequalis; (IIc) 0.0156 ppm alone, Table 6, read-out: (IIc) Inhibition
  inhibition at 0.0156 ppm: 6%
Venturia inaequalis; (IIc) 0.0313 ppm alone, Table 6, read-out: (IIc) Inhibition
  inhibition at 0.0313 ppm: 0%
Botrytis cinerea; (IIc) 0.0156 ppm alone, Table 7
  inhibition at 0.0156 ppm: 5%
Botrytis cinerea; (IIc) 0.0313 ppm alone, Table 7, read-out: (IIc) Inhibition
  inhibition at 0.0313 ppm: 4%
Rhizoctonia solani; (IIc) 0.0313 ppm alone, Table 8
  inhibition at 0.0313 ppm: 5%
Rhizoctonia solani; (IIc) 0.0625 ppm alone, Table 8
  inhibition at 0.0625 ppm: 31%
Rhizoctonia solani; (IIc) 0.1250 ppm alone, Table 8
  inhibition at 0.125 ppm: 85%
Rhizoctonia solani; (IIc) 0.2500 ppm alone, Table 8
  inhibition at 0.25 ppm: 88%
